Data: PMC4581723, “Evaluation of In Vitro Activity of the Class I PI3K Inhibitor Buparlisib (BKM120) in Pediatric Bone and Soft Tissue Sarcomas” (PLoS ONE, 2015)
Read-outs that look alike come from different tables or passages of the source.

Assays:
Assay type in all cases: cell-based
5838 = test: Cell viability assay (MTT), 72 h; conditions: 5838 (ES), PIK3CA WT, read-out: Buparlisib cell viability IC50
TC-32 = test: Cell viability assay (MTT), 72 h; conditions: Homo sapiens, TC-32 (ES), PIK3CA WT, read-out: Buparlisib cell viability IC50
TC-174 = test: Cell viability assay (MTT), 72 h; conditions: TC-174 (ES), PIK3CA WT, read-out: Buparlisib cell viability IC50
A4573 = test: Cell viability assay (MTT), 72 h; conditions: A4573 (ES), PIK3CA WT, read-out: Buparlisib cell viability IC50
SK-N-MC = test: Cell viability assay (MTT), 72 h; conditions: Homo sapiens, SK-N-MC (ES), PIK3CA WT, read-out: Buparlisib cell viability IC50
SJCRH30 = test: Cell viability assay (MTT), 72 h; conditions: SJCRH30 (RMS), PIK3CA WT, read-out: Buparlisib cell viability IC50
RD = test: Cell viability assay (MTT), 72 h; conditions: Homo sapiens, RD (RMS), PIK3CA WT, read-out: Buparlisib cell viability IC50
SJSA = test: Cell viability assay (MTT), 72 h; conditions: SJSA (OS), PIK3CA WT, read-out: Buparlisib cell viability IC50
cleaved PARP = test: Immunoblot of PARP cleavage (apoptosis)
From the text: The primary antibodies used for these studies were rabbit anti-PTEN, rabbit anti-phospho-Akt (Ser473), rabbit anti-phospho-Akt (Thr308), mouse anti-Akt (pan), rabbit anti-phospho-p44/42 MAPK (Erk1/2) (T202/[…] on Erk1, […]/[…] on Erk2), mouse anti-p44/42 MAPK (Erk1/2), mouse anti-phospho-p70 S6 Kinase (Thr389), rabbit anti-p70 S6 Kinase, rabbit anti-phospho-4E-BP1 (Thr37/46), rabbit anti-4E-BP1, rabbit anti-STAT3 (Y705), mouse anti-STAT3, and rabbit anti-cleaved PARP from Cell Signaling Technology; and mouse anti-β-actin from Sigma. Secondary antibodies conjugated to HRP were sheep anti-mouse IgG from GE Healthcare and goat anti-rabbit IgG from Santa Cruz Biotechnology. Secondary antibodies conjugated to infrared dyes were IRDye 800CW goat anti-mouse IgG and IRDye 680RD goat anti-rabbit IgG from LI-COR Biosciences. Fluorescent westerns were imaged using the Odyssey Infrared Imaging System (LI-COR Biosciences). Signals were quantified by measuring the integrated intensity values of each band using Odyssey software (LI-COR Biosciences). […] This occurs as a result of the ability of buparlisib to inhibit tubulin polymerization at higher concentrations.

RDES = test: Cell viability assay (MTT), 72 h; conditions: RD-ES, PIK3CA WT, read-out: Buparlisib cell viability IC50
A673 = test: Cell viability assay (MTT), 72 h; conditions: Homo sapiens, A673 (ES), PIK3CA WT, read-out: Buparlisib cell viability IC50
SKES = test: Cell viability assay (MTT), 72 h; conditions: SKES (ES), PIK3CA WT, read-out: Buparlisib cell viability IC50
TTC-475 = test: Cell viability assay (MTT), 72 h; conditions: TTC-475 (ES), PIK3CA WT, read-out: Buparlisib cell viability IC50
phospho-Akt (S473) = test: Immunoblot (quantitative) of Akt phosphorylation; conditions: for IC50: 1 h treatment
Experimental: Cells were incubated for approximately one hour on ice in lysis buffer (50 mM Tris pH 7.6, 0.5% NP-40, 10% glycerol, 30 mM NaCl, 1 mM EDTA) supplemented with Complete Mini EDTA-free protease inhibitor cocktail (Roche), 1 mM Na3VO4, and 1 mM NaF. […] Secondary antibodies conjugated to HRP were sheep anti-mouse IgG from GE Healthcare and goat anti-rabbit IgG from Santa Cruz Biotechnology. Secondary antibodies conjugated to infrared dyes were IRDye 800CW goat anti-mouse IgG and IRDye 680RD goat anti-rabbit IgG from LI-COR Biosciences. Fluorescent westerns were imaged using the Odyssey Infrared Imaging System (LI-COR Biosciences). Signals were quantified by measuring the integrated intensity values of each band using Odyssey software (LI-COR Biosciences).
We next evaluated the ability of buparlisib to inhibit cellular signaling downstream of PI3K. Increasing doses were added to cells and phosphorylation of signaling molecules was examined by immunoblot after one hour of treatment (Fig 2A). […] Phospho-Akt levels were normalized to levels of total Akt and fit to dose-response curves to calculate the half maximal inhibitory concentration (IC50) (Fig 2B).
Each data point represents the average of at least three independent experiments.

Question: What does the source list for Nc1cc(C(F)(F)F)c(-c2cc(N3CCOCC3)nc(N3CCOCC3)n2)cn1 [Buparlisib]?
Answer: IC50 5838: 1610 nM; IC50 (TC-32): 972 nM; IC50 (TC-174): 1040 nM; IC50 (A4573): 1560 nM; IC50 (SK-N-MC): 899 nM; IC50 (SJCRH30): 1000 nM; IC50 (RD): 1070 nM; IC50 (SJSA): 1450 nM; concentrations resulting in increased PARP cleavage (apoptosis) (cleaved PARP; 24 hours of drug treatment, sarcoma cell lines): greater than 1.0 μM; induction of apoptosis (PARP cleavage) (cleaved PARP; ES cell lines, 24 h): potent induction of apoptosis; induction of apoptosis (PARP cleavage) (cleaved PARP; OS and RMS cell lines, 24 h): modest; apoptosis as measured by PARP cleavage (cleaved PARP; combination with NVP-AEW541, A4573 cells, all dose levels, 24 hours): increased apoptosis; apoptosis (PARP cleavage) (cleaved PARP; combination with rapamycin, A4573 cells, 24 h): did not increase apoptosis; apoptosis as measured by PARP cleavage compared to buparlisib alone (cleaved PARP; combined with trametinib, A673 cells, 24 h): no increase in apoptosis; IC50 (RDES): 1120 nM; IC50 (A673): 1780 nM; IC50 (SKES): 822 nM; IC50 (TTC-475): 1020 nM; IC50 (phospho-Akt (S473); 1 h, 6647 (ES), phospho-Akt S473 normalized to total Akt, read-out: Buparlisib Akt phosphorylation IC50): 568 nM; IC50 (phospho-Akt (S473); 1 h, HOS (OS), phospho-Akt S473 normalized to total Akt, read-out: Buparlisib Akt phosphorylation IC50): 222 nM; IC50 (phospho-Akt (S473); 1 h, KHOS (OS), phospho-Akt S473 normalized to total Akt, read-out: Buparlisib Akt phosphorylation IC50): 109 nM; IC50 (phospho-Akt (S473); 1 h, MNNG (OS), phospho-Akt S473 normalized to total Akt, read-out: Buparlisib Akt phosphorylation IC50): 296 nM; IC50 (phospho-Akt (S473); 1 h, RD (RMS), phospho-Akt S473 normalized to total Akt, read-out: Buparlisib Akt phosphorylation IC50): 166 nM; IC50 (phospho-Akt (S473); 1 h, SJCRH30 (RMS), phospho-Akt S473 normalized to total Akt, read-out: Buparlisib Akt phosphorylation IC50): 200 nM; IC50 (phospho-Akt (S473); 1 h, TC-174 (ES), phospho-Akt S473 normalized to total Akt, read-out: Buparlisib Akt phosphorylation IC50): 313 nM; IC50 (phospho-Akt (S473); 1 h, range over the cell lines tested, largest values in cell lines that lack PTEN expression, read-out: phospho-Akt (S473) IC50, range over cell lines): 64 to 916 nM; IC50 (phospho-Akt (S473); A4573, 1 h, A4573 (ES), phospho-Akt S473 normalized to total Akt, read-out: Buparlisib Akt phosphorylation IC50): 916 nM; IC50 (phospho-Akt (S473); Homo sapiens, A204, 1 h, A204 (RMS), phospho-Akt S473 normalized to total Akt, read-out: Buparlisib Akt phosphorylation IC50): 63.7 nM; IC50 (phospho-Akt (S473); Homo sapiens, MCF7, 1 h, MCF-7 (breast), PIK3CA E545K, phospho-Akt S473 normalized to total Akt, read-out: Buparlisib Akt phosphorylation IC50): 251 nM; IC50 (phospho-Akt (S473); Homo sapiens, TC-32, 1 h, TC-32 (ES), phospho-Akt S473 normalized to total Akt, read-out: Buparlisib Akt phosphorylation IC50): 280 nM; IC50 (phospho-Akt (S473); KHOS-240S, 1 h, KHOS 240S (OS), phospho-Akt S473 normalized to total Akt, read-out: Buparlisib Akt phosphorylation IC50): 198 nM; rapamycin-mediated Akt activation (phospho-Akt (S473); buparlisib added to rapamycin, A4573 cells): reduced rapamycin-mediated Akt activation; Phosphorylation of Akt at serine 473 and threonine 308 (phospho-Akt (S473); increasing doses, one hour of treatment, TC-32, KHOS, RD): inhibited
